# Experimental data: ChEMBL document CHEMBL1125295, “Synthesis and some pharmacological properties of potent and selective antagonists of the vasopressor (V1-receptor) response to arginine-vasopressin” (J Med Chem, 1992)
# *1 amine or outer side, *2 acyl side, *3 side chain or, on linkers, in order; H or OH if unused. Where a SMILES comes first, the peptide text is derived from it. Bridges are numbered along the chain shown (N, C = ends). The star is where a group is joined. Ethylenediamine = C(CN[*:2])N[*:1]; X1 = O=C(CC1(S[*:2])CCCCC1)[*:1]; X2 = CC(C)(CC(=O)[*:1])S[*:2]; NHBu = CCCCN*
# Legend:
# [1] = biological target: Vasopressin V2 receptor (Rattus norvegicus, UniProt Q00788); assay: In vivo antidiuretic V2-antagonistic activity was measured as changes in urine flow in water-loaded rats and is expressed as the negative logarithm of the ''effective dose divided by the estimated volume of distribution (67 mL/kg); type: functional, organism-based; details: read-out: pA2 (converted)
# Vasopressin V2 receptor, sequence (Q00788 whole entry): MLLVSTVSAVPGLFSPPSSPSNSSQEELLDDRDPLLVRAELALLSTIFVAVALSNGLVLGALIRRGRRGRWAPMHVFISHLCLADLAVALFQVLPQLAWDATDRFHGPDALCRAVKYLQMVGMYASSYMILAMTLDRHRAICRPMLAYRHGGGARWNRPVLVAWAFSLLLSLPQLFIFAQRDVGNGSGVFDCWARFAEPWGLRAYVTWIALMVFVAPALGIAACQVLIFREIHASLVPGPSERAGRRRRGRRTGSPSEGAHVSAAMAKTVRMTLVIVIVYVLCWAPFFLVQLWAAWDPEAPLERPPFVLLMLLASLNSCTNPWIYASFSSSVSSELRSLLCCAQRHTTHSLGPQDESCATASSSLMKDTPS
# [2] = biological target: Vasopressin V1 receptor (Rattus norvegicus, UniProt P48974+P30560); assay: In vivo vasopressin V1-antagonistic activity was determined by measuring the blood pressure response in rats.; type: functional, organism-based
# [3] = biological target: Vasopressin V2 receptor (Rattus norvegicus) (UniProt Q00788); assay: Dose that reduces urine flow in water-loaded rats; type: functional
# Vasopressin V2 receptor (Rattus norvegicus), sequence (Q00788 whole entry): as above
# [4] = biological target: Vasopressin V1 receptor (Rattus norvegicus) (UniProt P48974+P30560); assay: Dose that reduces blood pressure response in rats; type: functional
# Vasopressin V1 receptor (Rattus norvegicus), sequence (P30560 whole entry, looked up): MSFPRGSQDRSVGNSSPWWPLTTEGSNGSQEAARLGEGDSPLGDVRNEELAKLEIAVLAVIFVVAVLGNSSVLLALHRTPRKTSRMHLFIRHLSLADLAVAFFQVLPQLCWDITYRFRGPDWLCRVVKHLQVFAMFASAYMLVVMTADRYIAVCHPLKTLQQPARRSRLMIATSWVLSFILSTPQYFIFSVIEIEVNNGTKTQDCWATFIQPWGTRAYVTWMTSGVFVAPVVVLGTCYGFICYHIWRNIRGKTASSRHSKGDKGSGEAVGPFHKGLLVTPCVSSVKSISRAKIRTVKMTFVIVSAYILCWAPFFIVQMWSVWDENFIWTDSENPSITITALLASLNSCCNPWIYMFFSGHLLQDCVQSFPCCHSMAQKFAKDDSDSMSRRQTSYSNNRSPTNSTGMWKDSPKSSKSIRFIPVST
# Vasopressin V1 receptor (Rattus norvegicus), sequence (P48974 whole entry, looked up): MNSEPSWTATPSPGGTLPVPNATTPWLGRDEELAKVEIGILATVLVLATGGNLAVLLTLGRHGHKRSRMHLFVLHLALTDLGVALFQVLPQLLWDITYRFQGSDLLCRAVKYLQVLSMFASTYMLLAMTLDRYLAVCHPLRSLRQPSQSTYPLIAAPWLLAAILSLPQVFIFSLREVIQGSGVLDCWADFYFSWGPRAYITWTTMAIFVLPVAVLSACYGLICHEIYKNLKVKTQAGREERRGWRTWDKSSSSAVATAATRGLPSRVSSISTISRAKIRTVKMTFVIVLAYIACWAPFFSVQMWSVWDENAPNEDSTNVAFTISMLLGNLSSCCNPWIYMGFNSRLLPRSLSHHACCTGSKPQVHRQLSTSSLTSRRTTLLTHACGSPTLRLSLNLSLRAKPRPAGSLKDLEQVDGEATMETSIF
# [5] = Ratio of antidiuretic V2 effective dose to that of vasopressin V1 effective dose; type: functional, Urine
structure (smiles),measurement,setting,value
COc1ccc(C[C@@H]2NC(=O)CC3(CCCCC3)SSC[C@@H](C(=O)N3CCC[C@H]3C(=O)N[C@@H](CCCN=C(N)N)C(=O)N[C@H](C(N)=O)[C@@H](C)O)NC(=O)[C@H](CC(N)=O)NC(=O)[C@H](CCC(N)=O)NC(=O)[C@H](Cc3ccccc3)NC2=O)cc1 (Y(Me)FQNCPRT-NH2; linker N-5 via X1) [listing 1 of 2 here],Kb,[1],~631 nM
same,pA2,[2],8.49
CN1C(=O)CC2(CCCCC2)SSC[C@H](C(=O)N2CCC[C@H]2C(=O)N[C@@H](CCCN=C(N)N)C(=O)NCCN)NC(=O)[C@@H](CC(N)=O)NC(=O)[C@H](CCC(N)=O)NC(=O)[C@@H](Cc2ccccc2)NC(=O)[C@@H]1Cc1ccc(O)cc1,Effective dose,[3],33 nM/kg
same,Effective dose,[4],0.12 nM/kg
COc1ccc(C[C@@H]2NC(=O)CC(C)(C)SSC[C@@H](C(=O)N3CCC[C@H]3C(=O)N[C@@H](CCCN=C(N)N)C(=O)N[C@H](C(N)=O)[C@@H](C)O)NC(=O)[C@H](CC(N)=O)NC(=O)[C@H](CCC(N)=O)NC(=O)[C@H](Cc3ccccc3)NC2=O)cc1 (Y(Me)FQNCPRT-NH2; linker N-5 via X2),pA2,[2],8.04
CN1C(=O)CC2(CCCCC2)SSC[C@H](C(=O)N2CCC[C@H]2C(=O)N[C@@H](CCCN=C(N)N)C(=O)NCC(=O)NCCN)NC(=O)[C@@H](CC(N)=O)NC(=O)[C@H](CCC(N)=O)NC(=O)[C@@H](Cc2ccccc2)NC(=O)[C@@H]1Cc1ccc(O)cc1,Effective dose,[3],16 nM/kg
same,Effective dose,[4],0.27 nM/kg
COc1ccc(C[C@@H]2NC(=O)CC3(CCCCC3)SSC[C@@H](C(=O)N3CCC[C@H]3C(=O)N[C@@H](CCCN=C(N)N)C(=O)N[C@H](C(N)=O)C(C)C)NC(=O)[C@H](CC(N)=O)NC(=O)[C@H](CCC(N)=O)NC(=O)[C@H](Cc3ccccc3)NC2=O)cc1 (Y(Me)FQNCPRV-NH2; linker N-5 via X1) [listing 1 of 2 here],Kb,[1],~1580 nM
same,pA2,[2],8.57
COc1ccc(C[C@@H]2NC(=O)CC(C)(C)SSC[C@@H](C(=O)N3CCC[C@H]3C(=O)N[C@@H](CCCN=C(N)N)C(=O)N[C@@H](C)C(N)=O)NC(=O)[C@H](CC(N)=O)NC(=O)[C@H](CCC(N)=O)NC(=O)[C@H](Cc3ccccc3)NC2=O)cc1 (Y(Me)FQNCPRA-NH2; linker N-5 via X2),pA2,[2],8.16
COc1ccc(C[C@@H]2NC(=O)CC3(CCCCC3)SSC[C@@H](C(=O)N3CCC[C@H]3C(=O)N[C@@H](CCCN=C(N)N)C(=O)N[C@@H](C)C(N)=O)NC(=O)[C@H](CC(N)=O)NC(=O)[C@H](CCC(N)=O)NC(=O)[C@H](Cc3ccccc3)NC2=O)cc1 (Y(Me)FQNCPRA-NH2; linker N-5 via X1) [listing 1 of 2 here],Ratio,[5],~590
CNC(=O)[C@H](CCCN=C(N)N)NC(=O)[C@@H]1CCCN1C(=O)[C@@H]1CSSC2(CCCCC2)CC(=O)N[C@@H](Cc2ccc(OC)cc2)C(=O)N[C@@H](Cc2ccccc2)C(=O)N[C@@H](CCC(N)=O)C(=O)N[C@@H](CC(N)=O)C(=O)N1 (Y(Me)FQNCPR-NHMe; linker N-5 via X1) [listing 1 of 2 here],Kb,[1],~1260 nM
same,pA2,[2],8.73
COc1ccc(C[C@@H]2NC(=O)CC3(CCCCC3)SSC[C@@H](C(=O)N3CCC[C@H]3C(=O)N[C@@H](CCCN=C(N)N)C(=O)NCCN)NC(=O)[C@H](CC(N)=O)NC(=O)[C@H](CCC(N)=O)NC(=O)[C@H](Cc3ccccc3)NC2=O)cc1 (Y(Me)FQNCPR-Ethylenediamine; linker N-5 via X1) [listing 1 of 2 here],Ratio,[5],~275
CNC(=O)[C@H](CCCN=C(N)N)NC(=O)[C@@H]1CCCN1C(=O)[C@@H]1CSSC2(CCCCC2)CC(=O)N[C@@H](Cc2ccc(OC)cc2)C(=O)N[C@@H](Cc2ccccc2)C(=O)N[C@@H](CCC(N)=O)C(=O)N[C@@H](CC(N)=O)C(=O)N1 (Y(Me)FQNCPR-NHMe; linker N-5 via X1) [listing 2 of 2 here],Ratio,[5],~700
COc1ccc(C[C@@H]2NC(=O)CC3(CCCCC3)SSC[C@@H](C(=O)N3CCC[C@H]3C(=O)N[C@@H](CCCN=C(N)N)C(=O)NCC(=O)NCCN)NC(=O)[C@H](CC(N)=O)NC(=O)[C@H](CCC(N)=O)NC(=O)[C@H](Cc3ccccc3)NC2=O)cc1 (Y(Me)FQNCPRG-Ethylenediamine; linker N-5 via X1) [listing 1 of 2 here],Ratio,[5],~60
C[C@H](O)[C@H](NC(=O)[C@H](CCCN=C(N)N)NC(=O)[C@@H]1CCCN1C(=O)[C@H]1CSSC2(CCCCC2)CC(=O)N(C)[C@@H](Cc2ccc(O)cc2)C(=O)N[C@H](Cc2ccccc2)C(=O)N[C@@H](CCC(N)=O)C(=O)N[C@H](CC(N)=O)C(=O)N1)C(N)=O,Effective dose,[3],45 nM/kg
same,Effective dose,[4],0.22 nM/kg
COc1ccc(C[C@@H]2NC(=O)CC(C)(C)SSC[C@@H](C(=O)N3CCC[C@H]3C(=O)N[C@@H](CCCN=C(N)N)C(=O)N[C@@H](Cc3ccc(O)cc3)C(N)=O)NC(=O)[C@H](CC(N)=O)NC(=O)[C@H](CCC(N)=O)NC(=O)[C@H](Cc3ccccc3)NC2=O)cc1 (Y(Me)FQNCPRY-NH2; linker N-5 via X2),pA2,[2],8.25
COc1ccc(C[C@@H]2NC(=O)CC3(CCCCC3)SSC[C@@H](C(=O)N3CCC[C@H]3C(=O)N[C@@H](CCCN=C(N)N)C(=O)N[C@H](C(N)=O)[C@@H](C)O)NC(=O)[C@H](CC(N)=O)NC(=O)[C@H](CCC(N)=O)NC(=O)[C@H](Cc3ccccc3)NC2=O)cc1 (Y(Me)FQNCPRT-NH2; linker N-5 via X1) [listing 2 of 2 here],Ratio,[5],~205
COc1ccc(C[C@@H]2NC(=O)CC3(CCCCC3)SSC[C@@H](C(=O)N3CCC[C@H]3C(=O)N[C@@H](CCCN=C(N)N)C(=O)NCC(=O)NCCN)NC(=O)[C@H](CC(N)=O)NC(=O)[C@H](CCC(N)=O)NC(=O)[C@H](Cc3ccccc3)NC2=O)cc1 (Y(Me)FQNCPRG-Ethylenediamine; linker N-5 via X1) [listing 2 of 2 here],Kb,[1],~251 nM
same,pA2,[2],8.39
COc1ccc(C[C@@H]2NC(=O)CC(C)(C)SSC[C@@H](C(=O)N3CCC[C@H]3C(=O)N[C@@H](CCCN=C(N)N)C(=O)NCC(N)=O)NC(=O)[C@H](CC(N)=O)NC(=O)[C@H](CCC(N)=O)NC(=O)[C@H](Cc3ccccc3)NC2=O)cc1 [DP[TYR(ME)2]AVP] (Y(Me)FQNCPRG-NH2; linker N-5 via X2),pA2,[2],7.96
COc1ccc(C[C@@H]2NC(=O)CC3(CCCCC3)SSC[C@@H](C(=O)N3CCC[C@H]3C(=O)N[C@@H](CCCN=C(N)N)C(=O)NCC(N)=O)NC(=O)[C@H](CC(N)=O)NC(=O)[C@H](CCC(N)=O)NC(=O)[C@H](Cc3ccccc3)NC2=O)cc1 (Y(Me)FQNCPRG-NH2; linker N-5 via X1),pA2,[2],8.62
COc1ccc(C[C@@H]2NC(=O)CC3(CCCCC3)SSC[C@@H](C(=O)N3CCC[C@H]3C(=O)N[C@@H](CCCN=C(N)N)C(=O)N[C@H](C(N)=O)C(C)C)NC(=O)[C@H](CC(N)=O)NC(=O)[C@H](CCC(N)=O)NC(=O)[C@H](Cc3ccccc3)NC2=O)cc1 (Y(Me)FQNCPRV-NH2; linker N-5 via X1) [listing 2 of 2 here],Ratio,[5],~575
COc1ccc(C[C@@H]2NC(=O)CC3(CCCCC3)SSC[C@@H](C(=O)N3CCC[C@H]3C(=O)N[C@@H](CCCN=C(N)N)C(=O)NCCN)NC(=O)[C@H](CC(N)=O)NC(=O)[C@H](CCC(N)=O)NC(=O)[C@H](Cc3ccccc3)NC2=O)cc1 (Y(Me)FQNCPR-Ethylenediamine; linker N-5 via X1) [listing 2 of 2 here],Kb,[1],~501 nM
same,pA2,[2],8.75
COc1ccc(C[C@@H]2NC(=O)CC(C)(C)SSC[C@@H](C(=O)N3CCC[C@H]3C(=O)N[C@@H](CCCN=C(N)N)C(=O)N[C@@H](CCCN=C(N)N)C(N)=O)NC(=O)[C@H](CC(N)=O)NC(=O)[C@H](CCC(N)=O)NC(=O)[C@H](Cc3ccccc3)NC2=O)cc1 (Y(Me)FQNCPRR-NH2; linker N-5 via X2),pA2,[2],8.52
COc1ccc(C[C@@H]2NC(=O)CC3(CCCCC3)SSC[C@@H](C(=O)N3CCC[C@H]3C(=O)N[C@@H](CCCN=C(N)N)C(=O)N[C@@H](CCCN=C(N)N)C(N)=O)NC(=O)[C@H](CC(N)=O)NC(=O)[C@H](CCC(N)=O)NC(=O)[C@H](Cc3ccccc3)NC2=O)cc1 (Y(Me)FQNCPRR-NH2; linker N-5 via X1),Kb,[1],~219 nM
same,pA2,[2],8.78
COc1ccc(C[C@@H]2NC(=O)CC3(CCCCC3)SSC[C@@H](C(=O)N3CCC[C@H]3C(=O)N[C@@H](CCCN=C(N)N)C(=O)N[C@@H](Cc3ccc(O)cc3)C(N)=O)NC(=O)[C@H](CC(N)=O)NC(=O)[C@H](CCC(N)=O)NC(=O)[C@H](Cc3ccccc3)NC2=O)cc1 (Y(Me)FQNCPRY-NH2; linker N-5 via X1) [listing 1 of 2 here],Ratio,[5],~217
COc1ccc(C[C@@H]2NC(=O)CC3(CCCCC3)SSC[C@@H](C(=O)N3CCC[C@H]3C(=O)N[C@@H](CCCN=C(N)N)C(=O)N[C@@H](Cc3ccc(O)cc3)C(N)=O)NC(=O)[C@H](CC(N)=O)NC(=O)[C@H](CCC(N)=O)NC(=O)[C@H](Cc3ccccc3)NC2=O)cc1 (Y(Me)FQNCPRY-NH2; linker N-5 via X1) [listing 2 of 2 here],Kb,[1],~1000 nM
same,pA2,[2],8.47
CC(C)[C@H](NC(=O)[C@H](CCCN=C(N)N)NC(=O)[C@@H]1CCCN1C(=O)[C@H]1CSSC2(CCCCC2)CC(=O)N(C)[C@@H](Cc2ccc(O)cc2)C(=O)N[C@H](Cc2ccccc2)C(=O)N[C@@H](CCC(N)=O)C(=O)N[C@H](CC(N)=O)C(=O)N1)C(N)=O,Effective dose,[3],115 nM/kg
same,Effective dose,[4],0.2 nM/kg
CCCCNC(=O)CNC(=O)[C@H](CCCN=C(N)N)NC(=O)[C@@H]1CCCN1C(=O)[C@@H]1CSSC2(CCCCC2)CC(=O)N[C@@H](Cc2ccc(OC)cc2)C(=O)N[C@@H](Cc2ccccc2)C(=O)N[C@@H](CCC(N)=O)C(=O)N[C@@H](CC(N)=O)C(=O)N1 (Y(Me)FQNCPRG-NHBu; linker N-5 via X1),pA2,[2],8.44
COc1ccc(C[C@@H]2NC(=O)CC(C)(C)SSC[C@@H](C(=O)N3CCC[C@H]3C(=O)N[C@@H](CCCN=C(N)N)C(=O)N[C@H](C(N)=O)C(C)C)NC(=O)[C@H](CC(N)=O)NC(=O)[C@H](CCC(N)=O)NC(=O)[C@H](Cc3ccccc3)NC2=O)cc1 (Y(Me)FQNCPRV-NH2; linker N-5 via X2),pA2,[2],8.05
COc1ccc(C[C@@H]2NC(=O)CC3(CCCCC3)SSC[C@@H](C(=O)N3CCC[C@H]3C(=O)N[C@@H](CCCN=C(N)N)C(=O)N[C@@H](C)C(N)=O)NC(=O)[C@H](CC(N)=O)NC(=O)[C@H](CCC(N)=O)NC(=O)[C@H](Cc3ccccc3)NC2=O)cc1 (Y(Me)FQNCPRA-NH2; linker N-5 via X1) [listing 2 of 2 here],Kb,[1],~1000 nM
same,pA2,[2],8.75
